Data taken from article PMC10725471, “Chemical modulation of cytosolic BAX homodimer potentiates BAX activation and apoptosis” (Nature Communications, 2023).
Where a name gives a salt, the structure may show the parent alone. Values belong to the compound of their own block, whether it stands above or below them.

Assays:
[1] = tested on: HCT116 BAX WT, HCT116 BAX P168G and HCT116 BAX E75K cells; experiment: Caspase 3/7 activation assay; type: cell-based, human; conditions: all HCT116 BAX cell lines, titration, 6 hrs
[2] = tested on: HCT116 BAX E75K cells (HCT116 BAX KO reconstituted with BAX E75K, cytosolic monomer); experiment: Cell viability (CellTiter-Glo) assay; type: cell-based; conditions: Homo sapiens, HCT-116, after 24 h
[3] = tested on: HCT116 BAX WT cells (HCT116 BAX KO reconstituted with BAX WT, cytosolic dimer); experiment: Cell viability (CellTiter-Glo) assay; type: cell-based; conditions: Homo sapiens, HCT-116, 24 h
[4] = tested on: HCT116 BAX P168G cells; experiment: Caspase 3/7 activation assay; type: cell-based, human
[5] = tested on: CALU-6 CRISPR/Cas9 BAX KO cells; experiment: Caspase 3/7 activation assay; type: cell-based, human; conditions: CALU-6 BAX KO, 8 hrs
[6] = tested on: HCT116 BAX P168G cells (HCT116 BAX KO reconstituted with BAX P168G, cytosolic dimer); experiment: Cell viability (CellTiter-Glo) assay; conditions: up to highest concentration of 2 μM, 24 h
[7] = molecular target: T1, BAX in CALU-6 cells (Homo sapiens, UniProt Q07812); experiment: Active BAX immunoprecipitation with 6A7 antibody (BAX conformational change assay); type: cell-based; conditions: 20 µM, 2 hrs
T1 construct: endogenous in cells; host or cells: CALU-6
Protocol: Cells were harvested and lysed with a 1% CHAPS lysis buffer (150 mM NaCl, 10 mM HEPES, pH 7.4, 1% CHAPS) supplemented with Halt protease inhibitor cocktail (Thermofisher Cat. 1861279). Whole-cell lysates were subjected to immunoprecipitation followed by immunoblotting against total BAX. Briefly, 500–1000 μg total protein in 600 µl was collected and incubated with 12 µl (50% slurry) of pre-equilibrated protein G agarose beads (Santa Cruz Biotechnology) for 30 min at 4 °C on a rotator. The precleared samples were then incubated with 5 µl of 6A7 antibody (Santa Cruz Biotechnology Cat. 23959) overnight at 4 °C. The next day, 20 µl (50% slurry) of pre-equilibrated G agarose beads (Santa Cruz Biotechnology) were added to the samples and incubated for 2 h at 4 °C. The beads were pelleted, washed with the lysis buffer 3 times, and protein eluted by heating the beads at 90 °C for 15 minutes in 1X LDS/DTT loading buffer. The immunoprecipitates were subjected to electrophoresis on 4–12% NuPage gels (Life Technologies). For visualization of proteins using Odyssey Infrared Imaging System (LI-COR Biosciences), membranes were blocked in PBS containing 5% milk powder for 1 hour at room temperature. Primary antibodies were incubated overnight at 4 °C. After washing, membranes were incubated with an IRdye800-conjugated goat anti-rabbit IgG (1:10, 000) or IRDye800- conjugated goat anti-mouse IgG (1:20,000 dilution) secondary antibodies (LI-COR Biosciences). Antibodies were used to detect the following proteins on membrane: BAX (Cell Signaling Cat. 2772) and β-Actin (Sigma Cat. A1978) or β-tubulin (Cell Signaling Cat. 2146).

[8] = tested on: SUDHL-5 cells; experiment: Cell viability (CellTiter-Glo) assay; type: cell-based; conditions: Homo sapiens, SU-DHL-5; SUDHL-5, 72 hrs
[9] = molecular target: cytosolic BAX (endogenous, human cell lines) (human (endogenous in human cell lines)) (UniProt Q07812); experiment: SEC; cytosolic fraction (2.5 mg, lysis without detergent) on Superdex 200 10/300 GL in IBc buffer (10 mM Tris HCl, 1 mM EGTA, 200 mM sucrose, pH 7.5), 4 °C; fractions blotted for BAX; cell lines with BAX centered at 14–14.5 ml (CALU-6, HCT-116, Namalwa, BEAS-2B, IMR90 and other lines of the panel)
[10] = molecular target: human BAX WT in HCT116 BAX KO cells (human) (UniProt Q07812); experiment: SEC; cytosolic fraction of HCT116 BAX KO cells reconstituted with BAX WT, P168G or E75K, untreated; Superdex 200 10/300 GL in IBc buffer, 4 °C; fractions blotted for BAX
[11] = molecular target: FITC-BIM SAHB, hydrocarbon-stapled peptide corresponding to the BH3 domain of BIM; experiment: fluorescence polarisation; direct binding: FITC-BIM SAHB (25 nM) with serial dilutions of full-length BAX; 10-minute time-point

T1 sequence (Q07812 whole entry): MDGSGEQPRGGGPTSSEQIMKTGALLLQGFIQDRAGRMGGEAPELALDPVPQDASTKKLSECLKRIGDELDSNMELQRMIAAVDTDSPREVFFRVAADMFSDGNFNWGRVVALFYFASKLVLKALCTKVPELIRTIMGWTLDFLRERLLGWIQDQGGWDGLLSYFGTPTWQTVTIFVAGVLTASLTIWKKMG
Chain of recombinant human full-length (aa1–192) wild-type BAX (Q07812 whole entry, the tested form may be a part): as the sequence (Q07812 whole entry) above

Compound: CC1(C)CCC(CN2CCN(c3ccc(C(=O)NS(=O)(=O)c4ccc(NCC5CCOCC5)c([N+](=O)[O-])c4)c(Oc4cnc5[nH]ccc5c4)c3)CC2)=C(c2ccc(Cl)cc2)C1 [ABT-199, Venetoclax]
caspase-3/7 activity (result in words) [1]: failed to induce caspase-3/7 activity

IC50 [2]: 45 nM
IC50 [3]: 191 nM
Compound: CC1(C)CCC(c2ccc(Cl)cc2)=C(CN2CCN(c3ccc(C(=O)NS(=O)(=O)c4ccc(N[C@H](CCN5CCOCC5)CSc5ccccc5)c(S(=O)(=O)C(F)(F)F)c4)cc3)CC2)C1 [ABT-263, Navitoclax]
caspase-3/7 activity (result in words) ([4]; titration, 6 hrs): did not show caspase-3/7 activity
caspase-3/7 activation (result in words) [5]: no caspase-3/7 activation was observed
cell viability (result in words) [6]: did not show decreased viability

6A7 epitope exposure and activation of BAX (result in words) [7]: none of the analogs
Compound: O=C(O)c1ccc(-n2c(/C=C/C3CCCC3)nc3ccc(I)cc3c2=O)cc1 [BDM19.2]

6A7 epitope exposure and activation of BAX (result in words) [7]: none of the analogs
Compound: O=C(O)c1ccc(-n2c(/C=C/C3CC3)nc3ccc(I)cc3c2=O)cc1 [BDM19.3]

6A7 epitope exposure and activation of BAX (result in words) [7]: none of the analogs
Compound: Cc1cccc(/C=C/c2nc3c(c(=O)n2-c2ccc(C(=O)O)cc2)CCCC3)c1 [BDM19.4]

IC50 [8]: 1360 nM
Compound: Cc1cccc(/C=C/c2nc3ccc(I)cc3c(=O)n2-c2ccc(C(=O)O)cc2)c1 [BDM19]
caspase-3/7 activation (result in words) [5]: no caspase-3/7 activation was observed

Compound: COc1cccc2c1C(=O)c1c(O)c3c(c(O)c1C2=O)C[C@@](O)(C(=O)CO)C[C@@H]3O[C@H]1C[C@H](N)[C@H](O)[C@H](C)O1 [doxorubicin, Doxorubicin hydrochloride]
caspase-3/7 activation (result in words) ([4]; various concentrations, 24 hrs): not responsive

stoichiometry N [9]: 2
Compound: cytosolic BAX (endogenous, human cell lines) (from UniProt Q07812 1-192) (natural protein)

stoichiometry N [10]: 2
Compound: human BAX WT in HCT116 BAX KO cells (from UniProt Q07812 1-192) (natural protein)

EC75 [11]: 125 nM
Compound: recombinant human full-length (aa1–192) wild-type BAX (from UniProt Q07812 1-192) (natural protein)
